“Also recorded” adds a separate entry of the source.
Tests used:
[1] = target: T1, human wild-type (WT)-pendrin (Homo sapiens, UniProt O43511); test: Pendrin-mediated Cl^−/HCO3^− exchange activity in CHO-K1 cells; assay type: cell-based; conditions: for inhibition of pendrin Cl^−/HCO3^− exchange activity: CHO-K1 cells, pretreated 10 minutes
T1 construct: expressed in transfected cells
T1 sequence (O43511 1-780): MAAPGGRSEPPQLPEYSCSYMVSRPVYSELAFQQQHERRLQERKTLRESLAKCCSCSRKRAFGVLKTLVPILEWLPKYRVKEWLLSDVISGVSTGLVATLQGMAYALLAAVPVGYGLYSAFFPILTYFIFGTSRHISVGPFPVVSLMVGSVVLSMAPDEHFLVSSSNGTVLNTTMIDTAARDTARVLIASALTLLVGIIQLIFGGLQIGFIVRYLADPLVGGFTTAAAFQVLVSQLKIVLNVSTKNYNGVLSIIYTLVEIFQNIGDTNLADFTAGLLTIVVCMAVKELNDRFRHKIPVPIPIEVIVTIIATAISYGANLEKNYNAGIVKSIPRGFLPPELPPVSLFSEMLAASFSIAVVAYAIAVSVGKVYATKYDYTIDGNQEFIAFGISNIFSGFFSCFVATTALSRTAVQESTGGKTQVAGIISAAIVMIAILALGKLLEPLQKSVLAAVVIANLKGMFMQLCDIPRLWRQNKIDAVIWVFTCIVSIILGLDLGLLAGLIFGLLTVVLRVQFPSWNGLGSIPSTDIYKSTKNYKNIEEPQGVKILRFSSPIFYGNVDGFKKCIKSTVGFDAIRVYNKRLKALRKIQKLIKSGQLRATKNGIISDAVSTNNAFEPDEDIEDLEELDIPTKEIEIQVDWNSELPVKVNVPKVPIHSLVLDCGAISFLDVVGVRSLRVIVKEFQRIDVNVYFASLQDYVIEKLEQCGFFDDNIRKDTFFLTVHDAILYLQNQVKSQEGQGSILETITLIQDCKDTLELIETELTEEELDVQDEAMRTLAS
Description: For measurement of Cl^−/HCO3^− exchange activity, intracellular pH (pHi) was measured in WT-pendrin expressing CHO-K1 and HNE cells using pH sensor SNARF5-AM (Molecular Probes). The cells were treated with 5 μM SNARF5-AM for 30 minutes, and then were equipped in a perfusion chamber on the stage of a reverse fluorescence microscope (Nikon, Tokyo, Japan) equipped with a cooled charge-coupled device camera (Zyla sCMOS), image acquisition and analysis software (Meta Imaging Series 7.7). The cells were perfused with a HCO3^− buffer solution containing 120 NaCl, 5 KCl, 1 MgCl2, 1 CaCl2, 10 D-glucose, 5 HEPES, and 25 NaHCO3 (pH 7.4) (mM). To measure the Cl^−/HCO3^− exchange activity, the HCO3^− buffer solution was changed to Cl^−-free HCO3^− buffer solution. When external Cl^−-free HCO3^− buffer solution is applied, the outflow of Cl^− and inflow of HCO3^− are increased by pendrin. To maintain the pH of the HCO3^− buffer solution, the solution was continuously gas treated with 95% O2 and 5% CO2. SNARF5 fluorescence was recorded at 515±10 nm of the excitation wavelength and 640±10 nm of the emission wavelength, and intracellular pH calibration was performed with a solution including 145 mM KCl, 10 mM HEPES and […] nigericin having a calibrated pH to 6.2-7.6.
When the CHO-K1 cells overexpressing WT-pendrin and iodine sensitive YFP are treated with a high concentration Cl^− solution, Cl^− moves to the cells and HCO3^− moves outside of the cells, and this change induces acidification of intracellular pH with reduction of YFP fluorescence.

[2] = target: T2, human CFTR (Homo sapiens, UniProt P13569); test: CFTR chloride channel activity in FRT cells; assay type: cell-based
T2 construct: expressed in transfected cells; host or cells: FRT (Fischer rat thyroid) cells; for F10 also expressing mutant YFP
Description: (A) The inhibition of mouse pendrin (mPDS)-mediated Cl^−/I^− exchange activity by F56 was measured in CHO-K1 cells (mean±S.E., n=5). The indicated concentration of F56 was pretreated for 10 minutes. (B) Summary of dose-response for inhibition of the human pendrin (hPDS)-mediated (closed circle, FIG. (a), C) and mPDS-mediated (open circle) Cl^−/I^− exchange activity. (C-F) Representative traces of intracellular pH in CHO-K1 cells expressing SLC26A3, SLC26A6, SLC26A7 and SLC26A9 were shown. The application of Cl^− free solution induced intracellular alkalization by Cl^−/HCO3^− exchange. The indicated concentration of F56 was pretreated for 10 minutes. (G) the effect of F56 (100 μM) on the CFTR chloride channel activity was measured in FRT cells expressing human CFTR. […] (H) The effect of F56 (100 μM) on the AN01 chloride channel activity was measured in FRT cells expressing human AN01. […] (I) The effect of F56 on the hERG (Kv11.1) potassium channel activity was measured in HEK293T cells expressing human Kv11.1 (mean±S.E., n=4). […] (J) The effect of F56 on the 5-HT2A channel activity was measured in FRT cells expressing human 5-HT2A (mean±S.E., n=4). […]
(A) The effect of F10 (30 μM) on the CFTR channel was measured in FRT cells expressing human CFTR and mutant YFP. […] (B) The effect of F10 (30 μM) on the AN01 channel activity was measured in FRT cells expressing human and mutant YFP. […]

T2 sequence (P13569 whole entry): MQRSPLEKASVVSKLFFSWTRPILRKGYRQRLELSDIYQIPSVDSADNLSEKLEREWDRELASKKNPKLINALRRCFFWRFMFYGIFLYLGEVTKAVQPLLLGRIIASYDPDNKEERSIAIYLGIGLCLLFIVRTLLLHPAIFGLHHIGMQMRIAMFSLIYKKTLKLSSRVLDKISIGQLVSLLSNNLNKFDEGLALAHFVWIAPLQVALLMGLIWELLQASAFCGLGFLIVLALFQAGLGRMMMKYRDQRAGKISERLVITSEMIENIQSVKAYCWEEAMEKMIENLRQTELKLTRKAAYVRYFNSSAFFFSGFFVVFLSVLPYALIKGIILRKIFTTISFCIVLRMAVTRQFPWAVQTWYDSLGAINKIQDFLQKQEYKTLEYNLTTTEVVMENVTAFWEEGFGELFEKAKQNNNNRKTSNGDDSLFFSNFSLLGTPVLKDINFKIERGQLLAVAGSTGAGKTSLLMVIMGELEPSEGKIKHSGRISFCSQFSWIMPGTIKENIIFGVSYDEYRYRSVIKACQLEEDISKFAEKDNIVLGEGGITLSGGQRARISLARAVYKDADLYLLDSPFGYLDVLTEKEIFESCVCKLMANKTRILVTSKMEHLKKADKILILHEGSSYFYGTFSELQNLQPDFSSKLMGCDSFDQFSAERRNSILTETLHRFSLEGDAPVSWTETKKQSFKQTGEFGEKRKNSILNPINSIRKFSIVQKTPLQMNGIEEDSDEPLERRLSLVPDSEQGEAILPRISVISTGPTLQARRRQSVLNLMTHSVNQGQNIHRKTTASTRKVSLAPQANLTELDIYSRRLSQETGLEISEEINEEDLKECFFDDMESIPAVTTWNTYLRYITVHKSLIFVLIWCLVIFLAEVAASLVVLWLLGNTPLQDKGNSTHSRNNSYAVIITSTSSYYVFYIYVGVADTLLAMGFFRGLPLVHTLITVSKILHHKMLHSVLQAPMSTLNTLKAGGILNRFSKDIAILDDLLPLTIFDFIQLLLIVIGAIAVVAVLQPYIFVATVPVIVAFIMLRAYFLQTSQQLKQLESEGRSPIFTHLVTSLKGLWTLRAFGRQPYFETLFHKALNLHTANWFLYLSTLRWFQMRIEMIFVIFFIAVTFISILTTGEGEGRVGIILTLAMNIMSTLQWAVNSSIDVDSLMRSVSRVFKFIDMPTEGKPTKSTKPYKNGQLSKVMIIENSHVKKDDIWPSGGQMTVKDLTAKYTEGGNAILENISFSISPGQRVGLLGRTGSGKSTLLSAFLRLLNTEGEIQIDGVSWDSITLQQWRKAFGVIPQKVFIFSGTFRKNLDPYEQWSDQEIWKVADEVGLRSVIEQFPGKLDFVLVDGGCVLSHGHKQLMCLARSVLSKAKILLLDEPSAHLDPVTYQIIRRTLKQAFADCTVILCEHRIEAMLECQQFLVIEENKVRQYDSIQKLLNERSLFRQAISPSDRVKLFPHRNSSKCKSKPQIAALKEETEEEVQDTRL

SMILES	inhibition of pendrin Cl^−/HCO3^− exchange activity [1]	IC50 ([1]; FIG. 4(a), read-out: 50% inhibition of Cl^−/HCO3^− exchange activity)	effect on CFTR activity ([2]; 100 μM, FRT cells, forskolin-activated)	effect on CFTR channel activity ([2]; 30 μM, FRT cells with mutant YFP)
CC(C)(C)c1ccc(C2=NC(=Cc3cccs3)C(=O)O2)cc1 [F56, 2-(4-(tert-butyl)phenyl)-4-(thiophen-2-ylmethylene)oxazol-5(4H)-one]	significantly inhibited; also recorded: strongly inhibited	~10 µM	not affected	–
CC(C)(C)c1ccc(C2=NC(=Cc3ccc[nH]3)C(=O)O2)cc1 [F10, 4-((1H-pyrrol-2-yl)methylene)-2-(4-(tert-butyl)phenyl)oxazol-5 (4H)-one]	strongly inhibit	–	–	did not show any effect
